Experimental data taken from patent US12377119B2, “Natural killer cells” (IMPERIAL COLLEGE INNOVATIONS LIMITED, priority 2018, dated 2025).
Entries after “also recorded” stand apart in the source; their conditions may differ.

What was measured:
REV-ERBβ = target: T1, REV-ERBβ (Homo sapiens, UniProt Q14995); experiment: Dual-luciferase Bmal-luc reporter assay in HEK293T cells transfected with REV-ERBβ; assay type: cell-based; conditions: 10 μM
T1 construct: expressed in transfected cells; host or cells: HEK293T
T1 sequence (Q14995 1-579): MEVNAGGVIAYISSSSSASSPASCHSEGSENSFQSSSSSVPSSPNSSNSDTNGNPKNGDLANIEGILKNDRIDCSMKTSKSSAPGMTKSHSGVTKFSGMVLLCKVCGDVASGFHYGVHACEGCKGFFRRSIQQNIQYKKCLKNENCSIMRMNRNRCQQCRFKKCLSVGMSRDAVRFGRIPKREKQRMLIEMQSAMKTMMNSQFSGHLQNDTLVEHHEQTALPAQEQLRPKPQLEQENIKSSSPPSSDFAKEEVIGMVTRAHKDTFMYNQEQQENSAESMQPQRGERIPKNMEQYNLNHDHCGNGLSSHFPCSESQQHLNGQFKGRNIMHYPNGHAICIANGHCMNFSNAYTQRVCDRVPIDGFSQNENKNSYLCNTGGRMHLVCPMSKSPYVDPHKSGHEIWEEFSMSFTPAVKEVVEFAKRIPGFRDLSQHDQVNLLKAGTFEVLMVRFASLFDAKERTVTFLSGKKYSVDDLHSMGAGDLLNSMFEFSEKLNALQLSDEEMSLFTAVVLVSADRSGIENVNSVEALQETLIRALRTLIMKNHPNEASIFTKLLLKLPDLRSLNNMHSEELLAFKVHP
Protocol: (§1) HEK293T cells were defrosted and maintained in DMEM supplemented with 10% FCS and 1% P/S at 37° C. and 5% CO2. Cells were plated in a 24-well plate (7·10^4 cells/well in 0.5 mL of DMEM+10% FCS). 24 h after seeding, cells were transfected with 100 ng of Bmal-luc, 10 ng of pRL-CMV Renilla as an internal control and 10 ng of REV-ERBα or the empty vector pcDNA3 as a control. All conditions were equalled to a total of 400 ng of DNA by using BSM. In order to prepare transfection samples, calculated amounts of DNA needed for each condition were prepared in Opti-MEM and Fugene was added in a 5:2 Fugene:DNA ratio. Mixtures were vortexed to assure homogeneity and left to incubate for 15 min at rt. Afterwards, each DNA mix was transferred into the 24-well plate containing the pre-seeded cells, with each condition repeated by triplicate. 5 h after transfection, cells were treated with compounds 2-12, AG1-AG5 or DMSO as vehicle. Solution of the compounds in DMEM were prepared at a double concentration than the final desired one, and 0.5 mL of these solutions were added to each well. 24 h after transfection, cells were lysed and luciferase activity was measured using Dual-Luciferase Reporter Assay System E2920 (Promega). To perform the experiment, cells were lysed by adding 50 μL of passive lysis buffer (PLB) (1:5 dilution) to each well and gently stirring for 30 min. Each cell lysate was transferred to a 96-well plate. 50 μL of Dual-Glo reagent were dispensed into each well, tapped gently to mix and incubated for 10 min. Luminescence of firefly luciferase was measured using a Tecan VICTOR Light Luminescent counter equipment. Then, 50 μL of Stop&Glo reagent were dispensed to quench firefly activity and activate Renilla luciferase, incubated for 10 min and measured. Firefly activity was normalized to Renilla luciferase activity. Results were analysed using Welch's corrected parametric t-test.
The method of Example 2 was repeated but with 10 ng of REV-ERBβ used in place of REV-ERBa. Compounds 4, 66, 69 and 73 were tested (generated as described in Example 1). Agonist compound AG2 and DMSO were also tested as comparators.
The method of Example 5 was repeated using Compounds 18 and 19 (generated as described in Example 1). Agonist compound AG5 and DMSO were also tested as comparators.

REV-ERBα = target: T2, REV-ERBα (Homo sapiens, UniProt P20393); experiment: Dual-luciferase Bmal-luc reporter assay in HEK293T cells transfected with REV-ERBα; assay type: cell-based; conditions: 10 μM
T2 construct: expressed in transfected cells; host or cells: HEK293T
T2 sequence (P20393 1-614): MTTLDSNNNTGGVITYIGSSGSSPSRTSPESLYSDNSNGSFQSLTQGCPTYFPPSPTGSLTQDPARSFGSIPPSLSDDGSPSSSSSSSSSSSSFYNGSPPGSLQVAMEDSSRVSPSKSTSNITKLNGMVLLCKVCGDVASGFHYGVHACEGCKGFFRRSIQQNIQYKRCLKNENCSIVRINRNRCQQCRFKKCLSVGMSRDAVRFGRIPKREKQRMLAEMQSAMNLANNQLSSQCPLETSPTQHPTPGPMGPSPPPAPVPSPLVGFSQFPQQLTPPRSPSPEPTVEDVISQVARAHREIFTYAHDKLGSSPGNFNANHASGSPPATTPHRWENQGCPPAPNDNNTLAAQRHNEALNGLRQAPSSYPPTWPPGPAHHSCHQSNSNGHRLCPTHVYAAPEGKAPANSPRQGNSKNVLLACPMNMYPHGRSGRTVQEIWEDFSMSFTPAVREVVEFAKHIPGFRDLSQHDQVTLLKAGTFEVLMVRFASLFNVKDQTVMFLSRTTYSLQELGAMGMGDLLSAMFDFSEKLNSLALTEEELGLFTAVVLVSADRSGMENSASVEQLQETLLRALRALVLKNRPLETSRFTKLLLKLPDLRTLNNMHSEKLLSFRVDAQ
Protocol: as §1
The method of Example 2 was repeated using Compounds 70 to 72 (generated as described in Example 1). Compounds 4, 7 and 11 (tested in Example 2) were used as a positive control for REV-ERB inhibitory activity, agonist compound AG2 (also tested in Example 2) and DMSO were also tested as comparators.
The method of Example 2 was repeated using Compounds 64 to 66, 69 and 70 to 73 (generated as described in Example 1). Once again, Compounds 4, 7 and 11 (tested in Example 2) were used as a positive control for REV-ERB inhibitory activity, agonist compound AG2 (also tested in Example 2) and DMSO were also tested as comparators.
The method of Example 2 was repeated using Compounds 16 to 19, 27, 28 and 44 (generated as described in Example 1). Once again, Compounds 4, 7 and 11 (tested in Example 2) were used as a positive control for REV-ERB inhibitory activity, agonist compound AG2 (also tested in Example 2) and DMSO were also tested as comparators.

NK cells = conditions: previously shown by the inventors; cited from earlier work
E4bp4 = conditions: previously shown by the inventors; cited from earlier work
[1] = FIG. 6, three independent experiments in triplicate
[2] = FIG. 3, three independent experiments in triplicate, comparison with SR8278
[3] = FIG. 4, two independent experiments in triplicate, comparison with SR8278
[4] = FIG. 8, two independent experiments in triplicate

Row | SMILES | Effect on REV-ERBβ activity (Bmal-luc luciferase expression) (REV-ERBβ; [1]) | Effect on REV-ERBα activity (Bmal-luc luciferase expression) (REV-ERBα; [2]) | Effect on REV-ERBα activity (Bmal-luc luciferase expression) (REV-ERBα; [3]) | Effect on REV-ERBβ activity (Bmal-luc luciferase expression) (REV-ERBβ; [4]) | further results
1 | CCOC(=O)C1Cc2ccccc2CN1C(=O)OCC (racemic) [Compound 4, Diethyl 3,4-dihydroisoquinoline-2,3(1H)-dicarboxylate] | significant antagonistic activity | significant increase in luciferase expression compared with SR8278; also recorded: significant antagonistic activity | significant antagonistic activity |  | Effect on REV-ERBα activity (Bmal-luc luciferase expression) (REV-ERBα; FIG. 7, three independent experiments in triplicate): significant antagonistic activity
2 | CCOC(=O)C1Cc2ccccc2CN1C(=O)c1ccnn1C (racemic) [Compound 18] |  |  |  | antagonistic activity | 
3 | CCOC(=O)C1Cc2ccccc2CN1C(=O)c1ccn(C)n1 (racemic) [Compound 19] |  |  |  | antagonistic activity | 
4 | CCOC(=O)C1Cc2ccccc2CN1S(=O)(=O)c1cccc2ccccc12 (stereo not shown) [AG2] | agonist | agonists | agonist | agonist | Effect on REV-ERBα activity (Bmal-luc luciferase expression) (REV-ERBα; FIG. 5, three independent experiments in triplicate): agonist
5 | CCOC(=O)C1Cc2ccccc2CN1C(=O)c1ccc(SC)s1 (stereo not shown) [SR8278] |  |  |  |  | NK cell production (NK cells): increases NK cell production; E4bp4 expression (E4bp4): increases E4bp4 expression
